Assays:
[1] = biological target: T1, Cellular ERK5 Activity (Homo sapiens, UniProt Q13164); assay: Inhibition of Cellular ERK5 Activity (cell-based assay, MEF2 luciferase reporter in SN12C cells); conditions: renal cancer cell line SN12C, doxycycline-induced MEK5DD, 0.3-10000 nM, mean where repeated
T1 construct: MEF2-response-element luciferase reporter (pGreenFire1)
Protocol: (§1) Two assays were performed to assess the ERK5 inhibitory activity of compounds of the Examples, a cell-based assay and a cell-free biochemical assay. Where repeat measurements were taken, the value reported is a mean average.
Inhibition of Cellular ERK5 Activity
The renal cancer cell line SN12C was transduced by a lentivirus pGreenFire1 MEF2 EF1 Neo (ref TR030VA-N) from SBI using standard infection protocol. pGreenFire1 MEF2 EF1 Neo allows the expression of luciferase gene under the control of minimal promoter with MEF2 transcriptional response elements. Cells harboring the reporter construct were selected by geneticin treatment. The selected cells were then transposed by a piggyback based plasmid pCM4007 allowing the expression of constitutively activated MEK5DD under control of TREG3 promoter, a doxycycline regulated promoter. Transposed cells were selected by puromycin treatment. Upon doxycycline treatment (1 μg/ml) MEK5DD was expressed. MEK5DD activates ERK5 that phosphorylates MEF2C protein. Activated MEF2C protein can bind to its transcriptional response elements. Then the luciferase is expressed. In a 96-well plate (96F nuncleon ref137101 thermofisher), 50,000 cells were inoculated in 142.5 μl of RPMI medium containing 10% fetal calf serum, 1% glutamine, and 1 μg/ml doxycycline. After 24 hours, compounds were added in 7.5 μl culture medium (with 2% DMSO to give a final concentration of 0.1%) in order to obtain the desired concentration (0.3-10000 nM). The luciferase activity was measured using the Kit Bright Glo Luminescent Cell Assay Cat E2610 (Promega) according to the manufacturer's protocol. Luminescence was determined using 0.2 second reading/well using a Tecan SPARK. IC50 values were calculated using XLFIT5 for Microsoft Excel using method 205. The IC50 values represent the concentration of compound which inhibits the measurable luminescence signal by 50% as compared to DMSO-treated control cells.

[2] = biological target: T2, activated catalytic domain of protein ERK5 (Homo sapiens, UniProt Q13164); assay: Cell-Free Assay of ERK5 Inhibition (Time-Resolved Forster Resonance Energy Transfer); assay type: biochemical; conditions: ERK5 4 nM, 1 mM ATP, 1 μM biotinylated 4EBP1 peptide, 30 min at 37° C.; TR-FRET; mean where repeated
T2 construct: purchased CarnaBiosciences #04-146
Protocol: as §1
Cell-Free Assay of ERK5 Inhibition
An assay was performed to measure the capacity of each compound to inhibit ERK5 enzymatic activity. Compound potency was evaluated by Time-Resolved Forster Resonance Energy Transfer (FRET system). The activated catalytic domain of protein ERK5 (CarnaBiosciences #04-146) was mixed at 4 nM with varying concentrations of compound and incubated for 30 minutes at room temperature. A mixture of 1 mM ATP and 1 μM biotinylated synthetic peptide was added (Biosyntan GmbH). This synthetic peptide represents amino acids 30-52 of Eukaryotic translation initiation factor 4E-binding protein 1 (see, e.g., the sequence under accession No. NP_004086.1) biotinylated at the N-terminus. After 30 minutes at 37° C., the peptide phosphorylation by ERK5 was measured by addition of FRET reagents consisting of 12.5 µg/ml Streptavidin-XL665, 1 nM Anti-P-4EBP1 antibody and 300 ng/ml Anti-rabbit-K antibody. Following 90 minutes at room temperature fluorescent signals were read on the Pherastar FSX multimod detector from BMG Labtech (Exc° 340 nm, Em1 620 nm, Em2 665 nm). The IC50 values represent the concentration of compound which inhibits the measurable fluorescence signal by […] as compared to the DMSO only control.

T1 sequence (Q13164 whole entry): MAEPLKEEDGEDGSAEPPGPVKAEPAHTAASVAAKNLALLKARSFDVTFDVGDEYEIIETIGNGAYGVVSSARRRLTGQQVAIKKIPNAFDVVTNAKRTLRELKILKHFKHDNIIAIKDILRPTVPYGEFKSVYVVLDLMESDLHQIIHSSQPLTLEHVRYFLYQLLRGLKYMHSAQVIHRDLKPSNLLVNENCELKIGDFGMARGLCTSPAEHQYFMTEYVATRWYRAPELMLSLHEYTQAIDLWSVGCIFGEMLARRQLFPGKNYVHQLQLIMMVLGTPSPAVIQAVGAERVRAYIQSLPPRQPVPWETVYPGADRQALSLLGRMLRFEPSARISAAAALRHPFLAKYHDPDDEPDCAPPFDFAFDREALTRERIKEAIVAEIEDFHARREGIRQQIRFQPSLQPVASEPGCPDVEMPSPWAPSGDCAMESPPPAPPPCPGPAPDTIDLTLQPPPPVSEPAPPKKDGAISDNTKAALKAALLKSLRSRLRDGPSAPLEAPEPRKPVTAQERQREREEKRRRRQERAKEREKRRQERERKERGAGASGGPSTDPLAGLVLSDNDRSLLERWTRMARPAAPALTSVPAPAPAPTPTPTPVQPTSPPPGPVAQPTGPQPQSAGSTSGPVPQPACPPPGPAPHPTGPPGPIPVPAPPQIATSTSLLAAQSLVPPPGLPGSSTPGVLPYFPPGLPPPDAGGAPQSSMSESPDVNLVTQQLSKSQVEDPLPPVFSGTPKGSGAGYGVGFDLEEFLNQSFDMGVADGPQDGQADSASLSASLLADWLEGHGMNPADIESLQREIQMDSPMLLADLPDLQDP
T2 sequence (Q13164 55-347 limits assumed): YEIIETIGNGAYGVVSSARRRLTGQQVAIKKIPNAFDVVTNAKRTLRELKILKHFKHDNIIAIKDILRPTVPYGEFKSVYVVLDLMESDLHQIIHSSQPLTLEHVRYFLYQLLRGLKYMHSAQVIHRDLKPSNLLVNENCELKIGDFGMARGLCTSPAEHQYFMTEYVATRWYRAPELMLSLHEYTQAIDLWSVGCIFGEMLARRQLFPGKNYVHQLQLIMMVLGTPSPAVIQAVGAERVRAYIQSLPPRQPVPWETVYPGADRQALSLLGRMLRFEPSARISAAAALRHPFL

Row | IC50 [1] | IC50 [2] | Compound
1 | 480 nM | > 30000 nM | O=C(c1ccc(C(O)(C(F)(F)F)C(F)(F)F)cc1)N1CCC(c2c[nH]c3ncc(C4CCOCC4)nc23)CC1 [Example 42, [4-(2-tetrahydropyran-4-yl-5H-pyrrolo[2,3-b]pyrazin-7-yl)-1-piperidyl]-[4-[2,2,2-trifluoro-1-hydroxy-1-(trifluoromethyl)ethyl]phenyl]methanone]
2 | 272 nM | 639 nM | Nc1cc(OC(F)(F)F)ccc1C(=O)N1CCC(c2c[nH]c3ncc(OC4COC4)nc23)CC1 [Example 44, [2-amino-4-(trifluoromethoxy)phenyl]-[4-[2-(oxetan-3-yloxy)-5H-pyrrolo[2,3-b]pyrazin-7-yl]-1-piperidyl]methanone]

From US20260308157A1, “Pyrrolopyrazine Compounds, Preparation Thereof and Therapeutic Uses Thereof” (Sanofi, priority 2023, published 2026)
